Experiments:
Assay type in all cases: in vivo
[1] = test system: green foxtail (Setaria viridis); assay: pre-emergence herbicidal activity, green foxtail; details: 1 kg/Ha, about fourteen days, read-out: pre-emergence herbicidal activity (% control) SETVI
Protocol: (§1) This example sets forth the methods of herbicidal testing conducted on the specific compounds set forth below. Specifically, the compounds referenced below were tested for pre- and post-emergence herbicidal activity using a variety of crops and weeds. The test plants include, but are not limited to, soybean (Glycine max -- var. Winchester), field corn (Zea mays var. Pioneer 3732), wheat (Triticum aestivum var. Lew), morningglory (Ipomea lacunosa or Ipomea hederacea), velvetleaf (Abutilon theophrasti), green foxtail (Setaria viridis), Johnsongrass (Sorghum halepense), blackgrass (Aloepecurus myosuroides), common chickweed (Stellaria media), and common cocklebur (Xanthium strumarium L.).
(§2) In the post-emergence test, seeds of the plant species named above were planted in flats containing the appropriate soil mixture where they were maintained to allow the seeds to germinate. When the plants in these flats reached the proper stage of growth, flats for the pre-emergence tests were planted in a like manner. The flats containing the post-emergence and pre-emergence test plant species were then sprayed with an appropriately concentrated water/acetone solution of test compound. Once treated the flats were maintained, along with untreated controls, for about fourteen days. All treated plants were then examined for phytotoxicity, which was expressed as percent control where 0 is no effect and 100 is complete control. Effective rates of application for the compounds of the present invention range from 0.001 to 3 kg/ha, more likely from […] to 1 Kg/ha.
(§3) Herbicidal activity data at selected application rates are in Tables 4 and 5. The test compounds are identified by numbers correspond to those in Table 1.
(§4) Rate of application of test compound is 1 kg/Ha
(§5) SOY is soybean, WHT is wheat, CRN is corn, ABUTH is velvetleaf, IPOSS is
(§6) morningglory, STEME is chickweed, XANPE is cocklebur, ALOMY is blackgrass, […]

[2] = test system: common cocklebur (Xanthium strumarium L.); assay: pre-emergence herbicidal activity, cocklebur; details: 1 kg/Ha, about fourteen days, read-out: pre-emergence herbicidal activity (% control) XANPE
Protocol: as §1, §2, §3, §4, §5, §6

[3] = test system: soybean (Glycine max -- var. Winchester); assay: pre-emergence herbicidal activity, soybean; details: 1 kg/Ha, about fourteen days, read-out: pre-emergence herbicidal activity (% control) SOY
Protocol: as §1, §2, §3, §4, §5, §6

[4] = test system: field corn (Zea mays var. Pioneer 3732); assay: post-emergence herbicidal activity, corn; details: 1 Kg/Ha, about fourteen days, read-out: post-emergence herbicidal activity (% control) CRN
Protocol: as §1, §2, §3, §5
(§7) morningglory, STEME is chickweed, XANPE is cocklebur, ALOMY is blackgrass,
(§8) Rate of application of test compound is 1 Kg/Ha. The definitions as shown under Table 4 apply to Table 5.

[5] = test system: Johnsongrass (Sorghum halepense); assay: post-emergence herbicidal activity, johnsongrass; details: 1 Kg/Ha, about fourteen days, read-out: post-emergence herbicidal activity (% control) SORHA
Protocol: as §1, §2, §3, §5, §7, §8

[6] = test system: Johnsongrass (Sorghum halepense); assay: pre-emergence herbicidal activity, johnsongrass; details: 1 kg/Ha, about fourteen days, read-out: pre-emergence herbicidal activity (% control) SORHA
Protocol: as §1, §2, §3, §4, §5, §6

[7] = test system: morningglory (Ipomea lacunosa or Ipomea hederacea); assay: pre-emergence herbicidal activity, morningglory; details: Ipomoea, 1 kg/Ha, about fourteen days, read-out: pre-emergence herbicidal activity (% control) IPOSS
Protocol: as §1, §2, §3, §4, §5, §6

[8] = test system: wheat (Triticum aestivum var. Lew); assay: pre-emergence herbicidal activity, wheat; details: 1 kg/Ha, about fourteen days, read-out: pre-emergence herbicidal activity (% control) WHT
Protocol: as §1, §2, §3, §4, §5, §6

[9] = test system: common cocklebur (Xanthium strumarium L.); assay: post-emergence herbicidal activity, cocklebur; details: 1 Kg/Ha, about fourteen days, read-out: post-emergence herbicidal activity (% control) XANPE
Protocol: as §1, §2, §3, §5, §7, §8

[10] = test system: field corn (Zea mays var. Pioneer 3732); assay: pre-emergence herbicidal activity, corn; details: 1 kg/Ha, about fourteen days, read-out: pre-emergence herbicidal activity (% control) CRN
Protocol: as §1, §2, §3, §4, §5, §6

[11] = test system: blackgrass (Aloepecurus myosuroides); assay: pre-emergence herbicidal activity, blackgrass; details: Alopecurus myosuroides, 1 kg/Ha, about fourteen days, read-out: pre-emergence herbicidal activity (% control) ALOMY
Protocol: as §1, §2, §3, §4, §5, §6

[12] = test system: wheat (Triticum aestivum var. Lew); assay: post-emergence herbicidal activity, wheat; details: 1 Kg/Ha, about fourteen days, read-out: post-emergence herbicidal activity (% control) WHT
Protocol: as §1, §2, §3, §5, §7, §8

[13] = test system: soybean (Glycine max -- var. Winchester); assay: post-emergence herbicidal activity, soybean; details: 1 Kg/Ha, about fourteen days, read-out: post-emergence herbicidal activity (% control) SOY
Protocol: as §1, §2, §3, §5, §7, §8

[14] = test system: velvetleaf (Abutilon theophrasti); assay: pre-emergence herbicidal activity, velvetleaf; details: 1 kg/Ha, about fourteen days, read-out: pre-emergence herbicidal activity (% control) ABUTH
Protocol: as §1, §2, §3, §4, §5, §6

[15] = test system: morningglory (Ipomea lacunosa or Ipomea hederacea); assay: post-emergence herbicidal activity, morningglory; details: Ipomoea, 1 Kg/Ha, about fourteen days, read-out: post-emergence herbicidal activity (% control) IPOSS
Protocol: as §1, §2, §3, §5, §7, §8

[16] = test system: common chickweed (Stellaria media); assay: pre-emergence herbicidal activity, chickweed; details: 1 kg/Ha, about fourteen days, read-out: pre-emergence herbicidal activity (% control) STEME
Protocol: as §1, §2, §3, §4, §5, §6

[17] = test system: green foxtail (Setaria viridis); assay: post-emergence herbicidal activity, green foxtail; details: 1 Kg/Ha, about fourteen days, read-out: post-emergence herbicidal activity (% control) SETVI
Protocol: as §1, §2, §3, §5, §7, §8

[18] = test system: velvetleaf (Abutilon theophrasti); assay: post-emergence herbicidal activity, velvetleaf; details: 1 Kg/Ha, about fourteen days, read-out: post-emergence herbicidal activity (% control) ABUTH
Protocol: as §1, §2, §3, §5, §7, §8

Row | Compound | activity at 1000 g/ha [1] | activity at 1000 g/ha [2] | activity at 1000 g/ha [3] | activity at 1000 g/ha [4] | activity at 1000 g/ha [5] | activity at 1000 g/ha [6] | activity at 1000 g/ha [7] | activity at 1000 g/ha [8] | activity at 1000 g/ha [9] | activity at 1000 g/ha [10] | activity at 1000 g/ha [11] | activity at 1000 g/ha [12] | activity at 1000 g/ha [13] | activity at 1000 g/ha [14] | activity at 1000 g/ha [15] | activity at 1000 g/ha [16] | activity at 1000 g/ha [17] | activity at 1000 g/ha [18]
1 | CCOC(=O)CN1Cc2c(-n3c(=O)cc(C(F)(F)F)n(C)c3=O)ccc(Cl)c2C1=O [Compound 7] | 70% | 50% | 70% | 40% | 40% | 55% | 80% | 30% | 60% | 70% | 40% | 20% | 60% | 100% | 40% | 60% | 60% | 80%
2 | C#CCN1Cc2c(-n3c(=O)cc(C(F)(F)F)n(C)c3=O)ccc(Cl)c2C1=O [Compound 8] | 100% | 100% | 100% | 100% | 100% | 100% | 100% | 100% | 100% | 100% | 100% | 100% | 100% | 100% | 100% | 100% | 100% | 100%
3 | CN1Cc2c(-n3c(=O)cc(C(F)(F)F)n(C)c3=O)ccc(Cl)c2C1=O [Compound 9] | 100% | 100% | 100% | 50% | 50% | 100% | 100% | 100% | 70% | 100% | 100% | 50% | 100% | 100% | 90% | 100% | 70% | 100%
4 | Cn1c(C(F)(F)F)cc(=O)n(-c2ccc(Cl)c3c2CN(Cc2ccccc2)C3=O)c1=O [Compound 10] | 100% | 80% | 80% | 60% | 40% | 100% | 80% | 70% | 50% | 90% | 80% | 40% | 65% | 100% | 40% | 100% | 60% | 100%
5 | CCCCN1Cc2c(-n3c(=O)cc(C(F)(F)F)n(C)c3=O)ccc(Cl)c2C1=O [Compound 11] | 100% | 100% | 100% | 80% | 90% | 100% | 100% | 100% | 100% | 100% | 100% | 100% | 95% | 100% | 95% | 100% | 100% | 100%
6 | Cn1c(C(F)(F)F)cc(=O)n(-c2ccc(Cl)c3c2CNC3=O)c1=O [Compound 12] | 100% | 100% | 100% | 70% | 60% | 100% | 100% | 100% | 95% | 100% | 100% | 70% | 95% | 100% | 75% | 100% | 100% | 100%
7 | CCCN1Cc2c(-n3c(=O)cc(C(F)(F)F)n(C)c3=O)ccc(Cl)c2C1=O [Compound 13] | 100% | 100% | 100% | 100% | 100% | 100% | 100% | 100% | 95% | 100% | 100% | 100% | 100% | 100% | 100% | 100% | 100% | 100%
8 | Cn1c(C(F)(F)F)cc(=O)n(-c2ccc(Cl)c3c2CN(C(C)(C)C)C3=O)c1=O [Compound 14, 3-[7-chloro-2-(1,1-dimethylethyl)isoindolin-1-on-4-yl]-1-methyl-6-trifluoromethyl-2,4(1H,3H)-pyrimidinedione] | 100% | 100% | 100% | 80% | 100% | 100% | 100% | 100% | 100% | 100% | 100% | 100% | 100% | 100% | 90% | 100% | 100% | 100%
9 | Cn1c(C(F)(F)F)cc(=O)n(-c2c(Cl)cc(Cl)c3c2CNC3=O)c1=O [Compound 15] | 100% | 100% | 100% | 60% | 40% | 100% | 100% | 95% | 60% | 95% | 100% | 50% | 70% | 100% | 100% | 60% | 60% | 100%

Reference: patent US6277847A, “Herbicidal isoindolinonyl-and 3,4-dihydroisoquinolonyl-substituted heterocycles” (FMC Corporation, priority 2000, dated 2001)
